The values that follow are results of earlier work, collected in patent US20230149481A1, “COMBINATION THERAPY FOR INFLAMMATORY BOWEL DISEASE” (Servatus Ltd, priority 2020, published 2023).

SMILES strings stand for the structures.

The subject of this data set is DSS-induced colitis. The settings on record: previous tests in the same DSS-induced colitis model, compared with the Group 5 treatment of Example 1.

As for `C[C@]12C=CC(=O)C=C1CC[C@@H]1[C@@H]2[C@@H](O)C[C@@]2(C)[C@H]1CC[C@]2(O)C(=O)CO` [prednisolone], the in-life disease score result was “None of these drugs statistically improved the in-life disease score to the extent observed”. As for `O=C(O)c1cc(/N=N/c2ccc(S(=O)(=O)Nc3ccccn3)cc2)ccc1O` [sulfasalazine], the in-life disease score entry is recorded as “None of these drugs statistically improved the in-life disease score to the extent observed”.
